Assay results as given in publication PMC5537602, “TRPA1 channel mediates organophosphate-induced delayed neuropathy” (Cell Discovery, 2017).

Tests used:
mTRPA1 = mTRPA1 (Mus musculus, UniProt Q8BLA8); experiment: Whole-cell patch-clamp, HEK293 cells expressing mTRPA1; format: cell-based; parameters: expressed in transfected cells; host or cells: HEK293
Experimental: Human embryonic kidney 293 (HEK293) cells were cultured in DMEM containing 10% (vol/vol) heat-inactivated fetal bovine serum, 100 units ml^−1 penicillin–streptomycin and 2 mM L-glutamine at 37 °C in a humidity-controlled sterile incubator with 5% CO2. All cell culture reagents were purchased from Life Technologies. HEK293 cells were transfected transiently with the corresponding plasmids using lipofectamine 2000 (Life Technologies). Transfection efficiency was monitored by co-transfecting EGFP plasmid which codes for the enhanced green fluorescent protein. Electrophysiological recordings were performed between 24 and 36 h after transfection.
(§1) Whole-cell patch-clamp recordings in DRG neurons (small diameter, […]) and HEK293 cells were operated at room temperature (23–25 °C) using EPC-10 amplifier and Patch Master Software (HEKA). […] Currents were sampled at 10 kHz and low-pass filtered at 2.9 kHz. The internal solution was as follows (in mM): 140 CsCl, 10 HEPES, 5 EGTA, 0.1 CaCl2 and 1 MgCl2, with pH adjusted to 7.2 by CsOH and osmolarity 295–300 mOsm. The calcium-free external solution contained (in mM) 140 NaCl, 5 KCl, 0.5 EGTA, 1 MgCl2, 10 Glucose and 10 HEPES, with pH adjusted to 7.4 by NaOH and osmolarity 300–310 mOsm. The 0.5 mM EGTA was replaced by 2 mM CaCl2 for the recordings in DRG neurons. TRPA1 currents development was monitored with repetitive injections of 300 ms duration voltage ramps from −100 to +100 mV every 2 s and the holding potential was set to 0 mV for 50 ms, existing in both sides of the voltage ramp. To record inward currents in DRG neurons, we conducted voltage clamp at holding membrane potential of −70 mV. Solutions were switched using a gravity-fed continuous focal perfusion system.

mouse DRG neurons = experiment: Whole-cell patch-clamp of small-diameter DRG neurons; format: cell-based
Experimental: DRG neurons were isolated from young C57 BL/6 mice (4–5 weeks). The sections of thoracic and lumbar DRG neurons were rapidly isolated in calcium and magnesium-free PBS with low temperature conditions (ice-bath environment). The isolated tissues were cut into pieces with scissor and incubated for 30 min with 0.1% collagenase and 0.025% trypsin which were diluted by DMEM-F12 at 37 °C. After digestion, neurons were gently dissociated using Pasteur pipettes and then plated onto poly-D-lysine pre-coated glass cover slips. DRG neurons were cultured for 24 h before use.
as §1

cTRPA1 = biological target: T1, cTRPA1 (Gallus gallus, UniProt W8VTH6); experiment: Whole-cell patch-clamp, HEK293 cells expressing cTRPA1; format: cell-based, chicken
T1 sequence (W8VTH6 1-1126): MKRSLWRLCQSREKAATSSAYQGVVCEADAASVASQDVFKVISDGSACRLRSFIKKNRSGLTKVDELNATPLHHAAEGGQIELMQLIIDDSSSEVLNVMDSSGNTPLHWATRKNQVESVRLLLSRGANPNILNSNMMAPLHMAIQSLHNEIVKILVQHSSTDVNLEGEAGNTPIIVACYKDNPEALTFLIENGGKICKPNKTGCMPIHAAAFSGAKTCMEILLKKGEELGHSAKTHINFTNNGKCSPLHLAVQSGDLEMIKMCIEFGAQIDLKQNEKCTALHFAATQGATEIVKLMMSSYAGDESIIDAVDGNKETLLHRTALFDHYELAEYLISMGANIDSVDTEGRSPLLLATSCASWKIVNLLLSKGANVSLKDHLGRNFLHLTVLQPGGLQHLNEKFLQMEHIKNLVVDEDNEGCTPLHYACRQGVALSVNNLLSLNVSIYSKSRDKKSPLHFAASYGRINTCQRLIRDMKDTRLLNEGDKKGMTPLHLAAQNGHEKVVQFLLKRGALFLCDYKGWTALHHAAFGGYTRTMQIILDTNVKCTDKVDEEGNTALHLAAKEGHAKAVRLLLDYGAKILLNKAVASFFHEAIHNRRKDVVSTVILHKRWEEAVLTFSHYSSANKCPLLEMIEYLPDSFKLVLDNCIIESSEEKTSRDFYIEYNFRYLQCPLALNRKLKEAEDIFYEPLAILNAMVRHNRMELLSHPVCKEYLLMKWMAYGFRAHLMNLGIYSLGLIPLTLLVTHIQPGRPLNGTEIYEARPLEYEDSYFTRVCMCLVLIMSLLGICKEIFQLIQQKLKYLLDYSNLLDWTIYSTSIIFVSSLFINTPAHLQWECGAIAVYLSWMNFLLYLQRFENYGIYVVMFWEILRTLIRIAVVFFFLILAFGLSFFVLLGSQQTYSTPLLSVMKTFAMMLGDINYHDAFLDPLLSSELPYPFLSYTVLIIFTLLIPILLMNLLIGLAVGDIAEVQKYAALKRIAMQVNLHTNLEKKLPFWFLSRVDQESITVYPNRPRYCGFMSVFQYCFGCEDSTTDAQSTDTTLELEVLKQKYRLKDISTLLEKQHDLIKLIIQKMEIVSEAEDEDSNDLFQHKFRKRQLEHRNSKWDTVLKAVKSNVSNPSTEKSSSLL
Experimental: All cell culture reagents were purchased from Life Technologies. HEK293 cells were transfected transiently with the corresponding plasmids using lipofectamine 2000 (Life Technologies). Transfection efficiency was monitored by co-transfecting EGFP plasmid which codes for the enhanced green fluorescent protein. Electrophysiological recordings were performed between 24 and 36 h after transfection.
as §1, with “The internal solution was as follows (in mM): 140 CsCl, 10 HEPES, 5 EGTA, 0.1 CaCl2 and 1 MgCl2, with pH adjusted to 7.2 by CsOH and osmolarity 295–300 mOsm.” left out

Sequence of mTRPA1 (Q8BLA8 whole entry): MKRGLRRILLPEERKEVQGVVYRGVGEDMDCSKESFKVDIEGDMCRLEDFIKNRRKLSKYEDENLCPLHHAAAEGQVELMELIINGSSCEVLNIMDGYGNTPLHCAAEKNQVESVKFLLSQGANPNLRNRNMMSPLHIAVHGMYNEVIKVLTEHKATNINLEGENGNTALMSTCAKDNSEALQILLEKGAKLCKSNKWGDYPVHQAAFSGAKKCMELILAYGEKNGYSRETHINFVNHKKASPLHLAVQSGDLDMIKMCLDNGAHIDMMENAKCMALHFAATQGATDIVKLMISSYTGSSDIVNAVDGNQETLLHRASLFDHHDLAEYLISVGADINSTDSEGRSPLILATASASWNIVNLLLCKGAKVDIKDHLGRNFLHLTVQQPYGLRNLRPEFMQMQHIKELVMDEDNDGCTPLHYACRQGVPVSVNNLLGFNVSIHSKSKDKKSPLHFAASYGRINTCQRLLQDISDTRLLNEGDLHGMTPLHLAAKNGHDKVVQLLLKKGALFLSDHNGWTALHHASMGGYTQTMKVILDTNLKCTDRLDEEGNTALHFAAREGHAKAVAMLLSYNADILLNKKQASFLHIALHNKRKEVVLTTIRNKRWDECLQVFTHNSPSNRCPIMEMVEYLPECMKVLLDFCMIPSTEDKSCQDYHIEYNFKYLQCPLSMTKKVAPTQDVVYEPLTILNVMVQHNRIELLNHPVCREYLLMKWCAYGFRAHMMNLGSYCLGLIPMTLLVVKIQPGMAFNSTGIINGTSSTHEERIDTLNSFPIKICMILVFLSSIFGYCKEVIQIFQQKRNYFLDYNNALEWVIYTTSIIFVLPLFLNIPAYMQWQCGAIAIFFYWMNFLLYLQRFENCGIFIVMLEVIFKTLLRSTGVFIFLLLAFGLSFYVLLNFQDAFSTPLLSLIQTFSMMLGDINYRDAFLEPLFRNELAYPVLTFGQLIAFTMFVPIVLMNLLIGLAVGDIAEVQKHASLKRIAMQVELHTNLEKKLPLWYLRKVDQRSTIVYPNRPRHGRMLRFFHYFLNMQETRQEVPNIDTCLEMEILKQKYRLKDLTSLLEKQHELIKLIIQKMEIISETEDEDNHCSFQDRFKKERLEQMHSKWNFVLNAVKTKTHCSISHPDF

Row | SMILES | block of agonist-elicited mTRPA1 currents (mTRPA1; 10 μM HC030031, malathion or TOCP as agonist) | effect on AITC- or malathion-elicited action potentials (mouse DRG neurons; 10 μM HC030031) | inhibition of malathion-induced inward currents in DRG neurons (mouse DRG neurons; 10 μM HC030031) | block of malathion-elicited cTRPA1 currents (cTRPA1; 10 μM HC030031) | activation of mTRPA1 whole-cell currents (mTRPA1; 30 μM, calcium-free external solution) | action potential firing in WT small-diameter neurons (mouse DRG neurons; 100 μM) | currents in neurons from Trpa1−/− mice (mouse DRG neurons; Trpa1−/− neurons, 17/17) | neurons with robust inward currents (mouse DRG neurons; small-diameter neurons from WT mice, 7/18) | EC50 (cTRPA1) [µM] | activation of cTRPA1 whole-cell currents (cTRPA1; calcium-free external solution)
1 | CC(C)c1ccc(NC(=O)Cn2cnc3c2c(=O)n(C)c(=O)n3C)cc1 [HC030031] | blocked | suppressed | inhibited | blocked |  |  |  |  |  | 
2 | CCOC(=O)CC(SP(=S)(OC)OC)C(=O)OCC (stereo not drawn) [malathion, S-[1,2-bis (ethoxycarbonyl)ethyl] O, O-dimethyl phosphorodithioate] |  |  |  |  | large activation current | bursts of action potentials | failed to induce currents | ~ 39% | 10.8 ± 1.68 | large activation current
